± gives the standard deviation of the averaged measurements.
How the values were obtained:
Experiment in all cases: level (log10 ratio to DMSO vehicle control); higher = higher biomarker level / cell amount than vehicle control
[1] = compound: C=C(C)C(=O)OCCC(F)(F)C(F)(F)C(F)(F)C(F)(F)C(F)(F)C(F)(F)F [6:2 Fluorotelomer methacrylate]; settings: in DMSO
Experimental: (§1)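 BioMAP Diversity Plus panel of 12 human primary cell co-culture systems (3C, 4H, LPS, SAg, BT, BF4T, BE3C, CASM3C, HDF3CGF, KF3CT, MyoF, Mphg). Compounds were added 1 h before stimulation and left for 24 h (MyoF 48 h; BT 72 h for soluble read-outs or 6 d for IgG). Biomarkers were read by ELISA, cytotoxicity by SRB, PBMC viability and proliferation by Alamar Blue. Each well value was divided by the mean of 8 DMSO control wells on the same plate and log10 transformed; duplicate blinded samples were tested at 4 concentrations.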

[2] = compound: C=CC(=O)OCC(F)(F)C(F)(F)C(F)(F)COC(=O)C=C [1H,1H,5H,5H-Perfluoro-1,5-pentanediol diacrylate]; settings: 6700 nM; in DMSO
Experimental: as §1

[3] = compound: COC(=O)C(F)(F)C(F)(F)OC(F)(C(F)(F)F)C(F)(F)OC(F)=C(F)F [Methyl perfluoro(3-(1-ethenyloxypropan-2-yloxy)propanoate)]; settings: in DMSO
Experimental: as §1

[4] = compound: FC(F)(F)C(F)(F)C(F)(F)C(F)(F)C(F)(F)C(F)(F)C(F)(F)I [1-Iodopentadecafluoroheptane]; settings: in DMSO
Experimental: as §1

[5] = compound: FC(F)(F)C(F)(F)C(F)(F)C(F)(F)C(F)(F)C(F)(F)CC1CO1 [3-(Perfluorohexyl)-1,2-epoxypropane]; settings: in DMSO
Experimental: as §1

[6] = compound: FC(F)(F)C(F)(F)C(F)(F)CC1CO1 [1H,1H-Heptafluorobutyl epoxide]; settings: in DMSO
Experimental: as §1

[7] = compound: FC(F)(F)C(F)(F)C(F)(F)CI [Heptafluorobutyl iodide]; settings: in DMSO
Experimental: as §1

[8] = compound: FC(F)(F)C(F)(F)CNCC(F)(F)C(F)(F)F [Bis(1H,1H-perfluoropropyl)amine]; settings: in DMSO
Experimental: as §1

[9] = compound: NC(=O)C(F)(F)C(F)(F)C(F)(F)C(F)(F)C(N)=O [Octafluoroadipamide]; settings: in DMSO
Experimental: as §1

[10] = compound: NC(=O)C(F)(F)C(F)(F)C(F)(F)C(F)(F)F [Nonafluoropentanamide]; settings: in DMSO
Experimental: as §1

[11] = compound: NC(=O)C(F)(F)C(F)(F)C(F)(F)C(F)F; settings: in DMSO
Experimental: as §1

[12] = compound: NS(=O)(=O)C(F)(F)C(F)(F)C(F)(F)C(F)(F)C(F)(F)C(F)(F)F [Perfluorohexanesulfonamide]; settings: in DMSO
Experimental: as §1

[13] = compound: O=C(O)C(F)(F)C(F)(F)C(F)(F)C(F)(F)C(F)(F)C(F)(F)C(F)(F)C(F)(F)C(F)(F)C(F)F [11-H-Perfluoroundecanoic acid]; settings: in DMSO
Experimental: as §1

[14] = compound: O=C(O)C=CC(F)(C(F)(F)F)C(F)(F)F [3-(Perfluoroisopropyl)-2-propenoic acid]; settings: in DMSO
Experimental: as §1

[15] = compound: O=S(=O)(Cl)C(F)(F)C(F)(F)C(F)(F)C(F)(F)C(F)(F)C(F)(F)C(F)(F)C(F)(F)F [Perfluoro-1-octanesulfonyl chloride]; settings: in DMSO
Experimental: as §1

[16] = compound: O=S(=O)(F)C(F)(F)C(F)(F)C(F)(F)C(F)(F)C(F)(F)C(F)(F)C(F)(F)C(F)(F)F [Perfluorooctanesulfonyl fluoride]; settings: in DMSO
Experimental: as §1

[17] = compound: O=S(=O)(O)C(F)(F)C(F)(F)C(F)(F)C(F)(F)C(F)(F)C(F)(F)C(F)(F)C(F)(F)C(F)(F)C(F)(F)F [Sodium perfluorodecanesulfonate]; settings: in DMSO
Experimental: as §1

[18] = compound: O=S(=O)(O)CCC(F)(F)C(F)(F)C(F)(F)C(F)(F)C(F)(F)C(F)(F)F [6:2 Fluorotelomer sulfonic acid]; settings: in DMSO
Experimental: as §1

[19] = compound: OCC(F)(F)C(F)(F)C(F)(F)CO [Hexafluoroamylene glycol]; settings: in DMSO
Experimental: as §1

## BT:B cell Proliferation
[1]; 6700 nM
  level (log10): -0.0325 ± 0.043
[1]; 20000 nM
  level (log10): -0.0255 ± 0.021
[1]; 60000 nM
  level (log10): -0.008
[2]
  level (log10): -0.24 ± 0.052
[3]; 6700 nM
  level (log10): -0.009 ± 0.0099
[3]; 20000 nM
  level (log10): 0.01 ± 0.014
[4]; 6700 nM
  level (log10): -0.0045 ± 0.005
[4]; 20000 nM
  level (log10): 0.019 ± 0.0071
[5]; 6700 nM
  level (log10): 0.0065 ± 0.026
[5]; 20000 nM
  level (log10): 0.0035 ± 0.0035
[5]; 60000 nM
  level (log10): -0.01 ± 0.0085
[6]; 6700 nM
  level (log10): -0.021 ± 0.038
[6]; 20000 nM
  level (log10): 0.008 ± 0.033
[6]; 60000 nM
  level (log10): -0.008 ± 0.034
[7]; 6700 nM
  level (log10): 0.021 ± 0.021
[7]; 20000 nM
  level (log10): 0.015 ± 0.0071
[7]; 60000 nM
  level (log10): 0.021 ± 0.0042
[8]; 6700 nM
  level (log10): -0.005 ± 0.04
[8]; 20000 nM
  level (log10): 0.0145 ± 0.00071
[8]; 60000 nM
  level (log10): 0.0285 ± 0.0035
[9]; 6700 nM
  level (log10): -0.008 ± 0.025
[9]; 20000 nM
  level (log10): 0.018 ± 0.013
[9]; 60000 nM
  level (log10): 0.016 ± 0.025
[10]; 6700 nM
  level (log10): 0.032 ± 0.0028
[10]; 20000 nM
  level (log10): -0.023 ± 0.0042
[10]; 60000 nM
  level (log10): 0.0085 ± 0.0092
[11]; 6700 nM
  level (log10): 0.0115 ± 0.0092
[11]; 20000 nM
  level (log10): -0.001
[11]; 60000 nM
  level (log10): 0.0215 ± 0.0092
[12]; 6700 nM
  level (log10): 0.0025 ± 0.063
[12]; 20000 nM
  level (log10): 0.034 ± 0.047
[12]; 60000 nM
  level (log10): 0.086 ± 0.0042
[13]; 6700 nM
  level (log10): 0.023 ± 0.016
[13]; 20000 nM
  level (log10): 0.035 ± 0.031
[14]; 6700 nM
  level (log10): 0.0085 ± 0.0021
[14]; 20000 nM
  level (log10): -0.011 ± 0.0014
[14]; 60000 nM
  level (log10): 0.012 ± 0.037
[15]; 6700 nM
  level (log10): 0.01 ± 0.044
[15]; 20000 nM
  level (log10): 0.0345 ± 0.013
[15]; 60000 nM
  level (log10): 0.101 ± 0.011
[16]; 6700 nM
  level (log10): -0.0145 ± 0.016
[16]; 20000 nM
  level (log10): -0.011 ± 0.013
[16]; 60000 nM
  level (log10): 0.008 ± 0.021
[17]; 1500 nM
  level (log10): 0.0005 ± 0.021
[17]; 4400 nM
  level (log10): 0.0065 ± 0.0078
[17]; 13000 nM
  level (log10): 0.0015 ± 0.0035
[17]; 40000 nM
  level (log10): 0.0125 ± 0.0078
[18]; 6700 nM
  level (log10): 0.0405 ± 0.066
[18]; 20000 nM
  level (log10): 0.031 ± 0.017
[18]; 60000 nM
  level (log10): 0.0625 ± 0.098
[19]; 6700 nM
  level (log10): 0.0165 ± 0.013
[19]; 20000 nM
  level (log10): 0.0285 ± 0.0064
[19]; 60000 nM
  level (log10): 0.0195 ± 0.043

## MyoF:MMP-1
[1]; 6700 nM
  level (log10): 0.043 ± 0.0042
[1]; 20000 nM
  level (log10): 0.045 ± 0.04
[1]; 60000 nM
  level (log10): 0.018 ± 0.038
[2]
  level (log10): 0.206 ± 0.0028
[3]; 6700 nM
  level (log10): 0.021 ± 0.035
[3]; 20000 nM
  level (log10): 0.111 ± 0.084
[4]; 6700 nM
  level (log10): 0.145 ± 0.045
[4]; 20000 nM
  level (log10): 0.547 ± 0.018
[5]; 6700 nM
  level (log10): -0.019 ± 0.0085
[5]; 20000 nM
  level (log10): -0.02 ± 0.017
[5]; 60000 nM
  level (log10): 0.017 ± 0.055
[6]; 6700 nM
  level (log10): 0.01 ± 0.013
[6]; 20000 nM
  level (log10): -0.013 ± 0.051
[6]; 60000 nM
  level (log10): 0.0455 ± 0.1
[7]; 6700 nM
  level (log10): -0.022 ± 0.0099
[7]; 20000 nM
  level (log10): -0.0545 ± 0.0078
[7]; 60000 nM
  level (log10): -0.0125 ± 0.039
[8]; 6700 nM
  level (log10): -0.0065 ± 0.011
[8]; 20000 nM
  level (log10): -0.01 ± 0.021
[8]; 60000 nM
  level (log10): 0.0245 ± 0.08
[9]; 6700 nM
  level (log10): 0.0115 ± 0.036
[9]; 20000 nM
  level (log10): -0.0085 ± 0.0078
[9]; 60000 nM
  level (log10): 0.0325 ± 0.079
[10]; 6700 nM
  level (log10): -0.035 ± 0.037
[10]; 20000 nM
  level (log10): -0.02 ± 0.052
[10]; 60000 nM
  level (log10): -0.0055 ± 0.015
[11]; 6700 nM
  level (log10): -0.018 ± 0.038
[11]; 20000 nM
  level (log10): -0.034 ± 0.02
[11]; 60000 nM
  level (log10): 0.014 ± 0.028
[12]; 6700 nM
  level (log10): -0.0285 ± 0.016
[12]; 20000 nM
  level (log10): -0.0215 ± 0.0035
[12]; 60000 nM
  level (log10): 0.0495 ± 0.025
[13]; 6700 nM
  level (log10): -0.076 ± 0.021
[13]; 20000 nM
  level (log10): -0.027 ± 0.04
[14]; 6700 nM
  level (log10): -0.0205 ± 0.021
[14]; 20000 nM
  level (log10): -0.031 ± 0.0014
[14]; 60000 nM
  level (log10): 0.006 ± 0.068
[15]; 6700 nM
  level (log10): -0.013 ± 0.017
[15]; 20000 nM
  level (log10): -0.0095 ± 0.0092
[15]; 60000 nM
  level (log10): 0.0705 ± 0.061
[16]; 6700 nM
  level (log10): -0.0275 ± 0.013
[16]; 20000 nM
  level (log10): -0.011 ± 0.0085
[16]; 60000 nM
  level (log10): -0.007 ± 0.047
[17]; 1500 nM
  level (log10): 0.038 ± 0.1
[17]; 4400 nM
  level (log10): -0.022 ± 0.055
[17]; 13000 nM
  level (log10): -0.012 ± 0.02
[17]; 40000 nM
  level (log10): 0.0165 ± 0.064
[18]; 6700 nM
  level (log10): -0.018 ± 0.021
[18]; 20000 nM
  level (log10): -0.058 ± 0.0042
[18]; 60000 nM
  level (log10): -0.0145 ± 0.047
[19]; 6700 nM
  level (log10): -0.0245 ± 0.011
[19]; 20000 nM
  level (log10): -0.0525 ± 0.019
[19]; 60000 nM
  level (log10): -0.0115 ± 0.0092

— the supplement of paper PMC10331698
